Earlier results in patent US20190175566A1, “ANTI-TUMOR COCKTAIL COMPRISING AN ANTI-TUMOR AGENT SELECTIVE FOR TUMOR ACIDITY, AN ANTIOXIDANT, AND A P-GLYCOPROTEIN INHIBITOR” (ARION TECNOLOGIA BRASIL- GESTAO DE ATIVOS S/A, priority 2016, published 2019).
Like-named read-outs stand apart in the source and are kept apart here.

What was measured:
[1] = in mice, intravenous route

## COC1=C(OC)C(=O)C(C/C=C(\C)CC/C=C(\C)CC/C=C(\C)CC/C=C(\C)CC/C=C(\C)CC/C=C(\C)CC/C=C(\C)CC/C=C(\C)CC/C=C(\C)CCC=C(C)C)=C(C)C1=O [Co-Q10, Coenzyme Q10]
orally
  toxicity (LD50): ~20000 mg/kg

## O=C(O)c1c2ccccc2nc2ccccc12 [9-acridine carboxylic acid]
Route not given
  toxicity (LD50): 240 mg/kg
Via intraperitoneal application (subcutaneously)
  toxicity (LD50): 240 mg/kg

## COc1cc2c(cc1OC)CN(CCc1ccc(NC(=O)c3cc(OC)c(OC)cc3NC(=O)c3cnc4ccccc4c3)cc1)CC2 [Tariquidar, tariquidar]
[1]
  toxicity (LD50): 300 mg/kg
